Laboratory results published in US7410989B2, “Compounds, methods and compositions useful for the treatment of bovine viral diarrhea virus (BVDV) infection and hepatitis C virus (HCV) infection” (The University of North Carolina at Chapel Hill, priority 2001, dated 2008).

Tests used:
BVDV = assay: Screening of antiviral compounds for anti-BVDV activity in MDBK cells; virus titre by immunoperoxidase monolayer assay; type: cell-based, bovine viral diarrhea virus; conditions: for Day 3 Media TCID50/mL / Day 3 Media % Control / Day 7 Media TCID50/mL / Day 7 Media % Control: culture medium
Protocol: 2.0 cm^2 wells in a 24-well plate were seeded with 50 μl of medium from 12 ml of MEM-eq (minimum essential medium (MEM) with Earle's salts supplemented with 10% (v/v) equine serum, sodium bicarbonate (0.75 mg/ml), L-glutamine (0.29 mg/ml), penicillin G (100 U/ml), streptomycin (100 μg/ml), and amphotericin B (0.25 μg/ml)), which was derived by trypsinization of a confluent monolayer of Madin Darby Bovine Kidney (MDBK) cells in a 25 cm^2 flask. Cells were incubated at 38.5° C. with 5% CO2 for 24 hours. The average number of cells per well was determined and later used to calculate appropriate multiplicities of infection (MOI) of BVDV virus. […]
The inoculated cells incubated for one hour at 38.5° C. with 5% CO2 in humidified air. The medium was removed from the wells, and the cells washed one time with Ca^2+ and Mg^2+-free PBS comprising antiviral compound (12.5 μM) (cells in the wells not initially treated with antiviral compounds were washed without antiviral compound). […] Three days post-inoculation, medium was removed and stored at −20° C. for assay. […] Seven days post-inoculation, medium was removed and stored at −80° C. for serial dilution & assay.
The MDBK cells were resuspended in MEM-eq with no antiviral compound. Uterine tubal cells (UTC) were freeze-thawed and stored at −80° C. for analysis. UTC lysates were serially diluted with medium from Day 7 and assayed by immunoperoxidase for the presence of BVDV.
All samples were assayed for BVDV using the immunoperoxidase monolayer assay as described in A. Afshar et al., Can J Vet Res; 55:91-93 (1991). Samples were assayed in triplicate by adding 50 μL of MEM-eq containing approximately 2.5×10^3 MDBK cells to 50-μL of each sample supplemented with 50 μL of fresh MEM-eq in a 96-well culture plate. Plates were incubated for 72 h at 38.5° C. in a humidified atmosphere of 5% CO2 and air before the immunoperoxidase labeling technique was performed as follows:
After fixation, potentially infected cells were incubated with monoclonal antibodies D89 (M. L. Vickers et al., J Vet Diagn Invest 2, 300-302 (1990); Xue W et al., J Clin Microbiol 28, 1688-1693 […] specific for E2/gp53, a major envelope glycoprotein of BVDV (Xue W et al., Vet Microbiol 57, 105-118 (1997)) and 20.10.6 specific for NS3-p80, a conserved nonstructural protein (W. V. Corapi et al., Am J Vet Res 51, 1388-1394 (1990)). After washing with PBS and Tween 20 to remove unbound antibodies, peroxidase-conjugated rabbit anti-mouse IgG (Jackson Immuno Research Lab, West Grove, Pa.) was added. After a short incubation period, unbound peroxidase-conjugated antibody was removed by washing with PBS and Tween 20. Finally, the enzyme substrate, aminoethyl carbazole (Zymed Laboratories, Inc., South San Francisco, Calif.), which produces a reddish-brown color when oxidized by horseradish peroxidase, was added. Color change was visualized under light microscopy and compared to known positive and negative controls on each plate.
The tissue culture infective dose 50% (TCID50)/ml of the exposure aliquot was determined by the method of Reed and Muench (L. J. Reed and H. Muench, Am J Hygiene 27, 493-497 (1938). Results of viral detection assays were compared using a Pearson Chi-square test statistic (J. Sall and A. Lehman, JMP Start Statistics (Duxbury Press, Belmont, Calif. (1996), 195-211).

[1] = 12.5 μM compound, BVDV MOI 0.5, titre as % of no-antiviral control
[2] = 12.5 μM compound, BVDV MOI 0.05
[3] = 12.5 μM compound, BVDV MOI 0.05, titre as % of no-antiviral control
[4] = 12.5 μM compound, BVDV MOI 1.0, titre as % of no-antiviral control
[5] = compound at 0.2 μm, BVDV MOI 0.05
[6] = compound at 0.4 μm, BVDV MOI 0.05
[7] = compound at 0.7 μm, BVDV MOI 0.05
[8] = compound at 1.5 μm, BVDV MOI 0.05
[9] = compound at 3 μm, BVDV MOI 0.05
[10] = compound at 6 μm, BVDV MOI 0.05
[11] = compound at 12 μm, BVDV MOI 0.05
[12] = compound at 25 μm, BVDV MOI 0.05

SMILES: COc1cc(NC(=N)N)ccc1-c1ccc(-c2ccc(NC(=N)N)cc2OC)o1 [DB 711]
- Day 3 Cell Lysates TCID50/mL (BVDV; 12.5 μM compound, BVDV MOI 0.5): 2.00E+07 TCID50/mL
- Day 3 Cell Lysates % Control (BVDV; [1]): 322.5806%
- Day 3 Media TCID50/mL (BVDV; 12.5 μM compound, BVDV MOI 0.5): 2.40E+05 TCID50/mL
- Day 3 Media % Control (BVDV; [1]): 6.8571%

SMILES: O=[N+]([O-])c1ccc(-c2ccc(-c3nc4ccc(C5=NCCN5)cc4[nH]3)o2)cc1 [DB 457, 2-[5 (6)-{2-imidazolinyl}-2-benzimidazoyl]-5-(4-nitrophenyl)furan]
- Day 3 Cell Lysates TCID50/mL (BVDV; 12.5 μM compound, BVDV MOI 0.5): 3.50E+02 TCID50/mL
- Day 3 Cell Lysates % Control (BVDV; [1]): 0.0056%
- Day 3 Media TCID50/mL (BVDV; 12.5 μM compound, BVDV MOI 0.5): 1.00E+02 TCID50/mL
- Day 3 Media % Control (BVDV; [1]): 0.0029%

SMILES: COc1ccc(-c2ccc(-c3ccc(C4=NCCN4)cc3)o2)cc1 [DB 606]
- Day 3 Cell Lysates TCID50/mL (BVDV; 12.5 μM compound, BVDV MOI 0.5): Negative
- Day 3 Media TCID50/mL (BVDV; 12.5 μM compound, BVDV MOI 0.5): Negative

SMILES: N=C(N)Nc1ccc(-c2ccc(-c3ccc(NC(=N)N)cc3C(F)(F)F)o2)c(C(F)(F)F)c1 [DB 701]
- Day 3 Cell Lysates TCID50/mL (BVDV; 12.5 μM compound, BVDV MOI 0.5): 3.50E+04 TCID50/mL
- Day 3 Cell Lysates % Control (BVDV; [1]): 0.5645%
- Day 3 Media TCID50/mL (BVDV; 12.5 μM compound, BVDV MOI 0.5): 6.20E+03 TCID50/mL
- Day 3 Media % Control (BVDV; [1]): 0.1771%

SMILES: N=C(N)Nc1ccc(-c2ccc(-c3ccc(NC(=N)N)cc3)o2)cc1 [DB673]
- Day 7 Cell Lysates TCID50/mL (BVDV; [2]): 3.50E+04 TCID50/mL
- Day 7 Cell Lysates % Control (BVDV; [3]): 1.75%
- Day 3 Media TCID50/mL (BVDV; [2]): 1.00E+02 TCID50/mL
- Day 3 Media % Control (BVDV; [3]): 0.05%
- Day 7 Media TCID50/mL (BVDV; [2]): 6.20E+03 TCID50/mL
- Day 7 Media % Control (BVDV; [3]): 1.19%
- Day 7 Cell Lysates TCID50/mL (BVDV; 12.5 μM compound, BVDV MOI 1.0): 2.70E+05 TCID50/mL
- Day 7 Cell Lysates % Control (BVDV; [4]): 43.55%
- Day 3 Media TCID50/mL (BVDV; 12.5 μM compound, BVDV MOI 1.0): 3.50E+02 TCID50/mL
- Day 3 Media % Control (BVDV; [4]): 0.10%
- Day 7 Media TCID50/mL (BVDV; 12.5 μM compound, BVDV MOI 1.0): 2.00E+05 TCID50/mL
- Day 7 Media % Control (BVDV; [4]): 571.43%

SMILES: Nc1ccc(-c2ccc(-c3nc4ccc(C5=NCCN5)cc4[nH]3)o2)cc1 [DB 456, 2-[5 (6)-{2-imidazolinyl}-2-benzimidazoyl]-5-(4-aminophenyl)furan]
- Day 3 Cell Lysates % Control (BVDV; [5]): 100.0000%
- Day 3 Cell Lysates TCID50/mL (BVDV; [5]): 3.50E+05 TCID50/mL
- Day 3 Media % Control (BVDV; [5]): 31.5000%
- Day 3 Media TCID50/mL (BVDV; [5]): 6.30E+05 TCID50/mL
- Day 3 Cell Lysates % Control (BVDV; [6]): 1000.0000%
- Day 3 Cell Lysates TCID50/mL (BVDV; [6]): 3.50E+06 TCID50/mL
- Day 3 Media % Control (BVDV; [6]): 31.5000%
- Day 3 Media TCID50/mL (BVDV; [6]): 6.30E+05 TCID50/mL
- Day 3 Cell Lysates % Control (BVDV; [7]): 1000.0000%
- Day 3 Cell Lysates TCID50/mL (BVDV; [7]): 3.50E+06 TCID50/mL
- Day 3 Media % Control (BVDV; [7]): 31.5000%
- Day 3 Media TCID50/mL (BVDV; [7]): 6.30E+05 TCID50/mL
- Day 3 Cell Lysates % Control (BVDV; [8]): 1000.0000%
- Day 3 Cell Lysates TCID50/mL (BVDV; [8]): 3.50E+06 TCID50/mL
- Day 3 Media % Control (BVDV; [8]): 25.5000%
- Day 3 Media TCID50/mL (BVDV; [8]): 5.10E+05 TCID50/mL
- Day 3 Cell Lysates % Control (BVDV; [9]): 177.1429%
- Day 3 Cell Lysates TCID50/mL (BVDV; [9]): 6.20E+05 TCID50/mL
- Day 3 Media % Control (BVDV; [9]): 17.5000%
- Day 3 Media TCID50/mL (BVDV; [9]): 3.50E+05 TCID50/mL
- Day 3 Cell Lysates % Control (BVDV; [10]): 10.0000%
- Day 3 Cell Lysates TCID50/mL (BVDV; [10]): 3.50E+04 TCID50/mL
- Day 3 Media % Control (BVDV; [10]): 1.7500%
- Day 3 Media TCID50/mL (BVDV; [10]): 3.50E+04 TCID50/mL
- Day 3 Cell Lysates % Control (BVDV; [11]): 1.0000%
- Day 3 Cell Lysates TCID50/mL (BVDV; [11]): 3.50E+03 TCID50/mL
- Day 3 Media % Control (BVDV; [11]): 0.0310%
- Day 3 Media TCID50/mL (BVDV; [11]): 6.20E+02 TCID50/mL
- Day 3 Cell Lysates % Control (BVDV; [12]): 0.5714%
- Day 3 Cell Lysates TCID50/mL (BVDV; [12]): 2.00E+03 TCID50/mL
- Day 3 Media % Control (BVDV; [12]): 0.1750%
- Day 3 Media TCID50/mL (BVDV; [12]): 3.50E+03 TCID50/mL

SMILES: N=C(N)Nc1ccc(-c2ccc(-c3ccc(NC(=N)N)cc3Cl)o2)c(Cl)c1 [DB 708]
- Day 3 Cell Lysates TCID50/mL (BVDV; 12.5 μM compound, BVDV MOI 0.5): Negative
- Day 3 Media TCID50/mL (BVDV; 12.5 μM compound, BVDV MOI 0.5): Negative

SMILES: Cc1cc(NC(=N)N)ccc1-c1ccc(-c2ccc(NC(=N)N)cc2C)o1.Cl.Cl
- melting point: 265 to 271 °C (dec.)

SMILES: N=C(N)c1ccc(-c2ccc(-c3cccc(C(=N)N)c3)[nH]2)cc1 [DB619]
- Day 7 Cell Lysates TCID50/mL (BVDV; [2]): 1.10E+06 TCID50/mL
- Day 7 Cell Lysates % Control (BVDV; [3]): 55.00%
- Day 3 Media TCID50/mL (BVDV; [2]): 3.50E+02 TCID50/mL
- Day 3 Media % Control (BVDV; [3]): 0.18%
- Day 7 Media TCID50/mL (BVDV; [2]): 2.00E+05 TCID50/mL
- Day 7 Media % Control (BVDV; [3]): 38.46%
- Day 7 Cell Lysates TCID50/mL (BVDV; 12.5 μM compound, BVDV MOI 1.0): 3.50E+05 TCID50/mL
- Day 7 Cell Lysates % Control (BVDV; [4]): 56.45%
- Day 3 Media TCID50/mL (BVDV; 12.5 μM compound, BVDV MOI 1.0): 6.20E+04 TCID50/mL
- Day 3 Media % Control (BVDV; [4]): 17.71%
- Day 7 Media TCID50/mL (BVDV; 12.5 μM compound, BVDV MOI 1.0): 3.50E+04 TCID50/mL
- Day 7 Media % Control (BVDV; [4]): 100.00%
